Experimental data reported in US20220305132A1, “COMBINATION THERAPY COMPRISING AN ANTI-CD19 ANTIBODY DRUG CONJUGATE AND A PI3K INHIBITOR OR A SECONDARY AGENT” (ADC THERAPEUTICS SA, priority 2019, published 2022).

T1: CD19 (human, UniProt P15391 20-556)
T1 sequence (looked up): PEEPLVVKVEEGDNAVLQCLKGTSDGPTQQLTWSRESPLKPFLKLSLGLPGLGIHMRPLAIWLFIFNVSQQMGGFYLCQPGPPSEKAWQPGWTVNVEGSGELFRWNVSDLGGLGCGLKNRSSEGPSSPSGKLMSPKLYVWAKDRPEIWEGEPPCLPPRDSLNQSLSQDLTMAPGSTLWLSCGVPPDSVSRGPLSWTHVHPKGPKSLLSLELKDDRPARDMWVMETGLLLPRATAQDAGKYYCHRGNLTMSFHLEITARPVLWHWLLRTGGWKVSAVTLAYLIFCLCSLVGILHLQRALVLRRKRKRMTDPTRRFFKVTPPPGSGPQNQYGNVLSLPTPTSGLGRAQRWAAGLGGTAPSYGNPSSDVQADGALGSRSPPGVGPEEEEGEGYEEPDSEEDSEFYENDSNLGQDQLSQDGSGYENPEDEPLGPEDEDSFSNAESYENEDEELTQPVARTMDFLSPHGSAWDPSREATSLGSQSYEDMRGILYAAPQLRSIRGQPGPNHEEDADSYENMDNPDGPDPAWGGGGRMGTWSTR

B1: ADCx19 (antibody, V domains shown)
VH: QVQLVQPGAEVVKPGASVKLSCKTSGYTFTSNWMHWVKQAPGQGLEWIGEIDPSDSYTNYNQNFQGKAKLTVDKSTSTAYMEVSSLRSDDTAVYYCARGSNPYYYAMDYWGQGTSVTVS
VL: EIVLTQSPAIMSASPGERVTMTCSASSGVNYMHWYQQKPGTSPRRWIYDTSKLASGVPARFSGSGSGTSYSLTISSMEPEDAATYYCHQRGSYTFGGGTKLEIK

Experiments:
[1] = test system: myelodysplastic syndromes (MDS) patients; details: cited from earlier work
[2] = molecular target: T1, CD19; assay: cell-based or functional assay
[3] = patients with a del(5q) chromosomal abnormality

| Median IC50, MTT proliferation assay, 96 h exposure, 48 B-cell lymphoma lines [2] | Molecule | Adverse events ([1]; MDS patients) | transfusion independence or a reduction of at least 50% of pre-treatment RBC transfusion levels ([1]; non-del(5q) patients with confirmed low- and intermediate-1 risk) | complete cytogenetic remission [1, 3] | minor cytogenetic remission [1, 3] | red blood cell (RBC) transfusion independence [1, 3] |
| --- | --- | --- | --- | --- | --- | --- |
|  | Nc1cccc2c1CN(C1CCC(=O)NC1=O)C2=O (racemic) [Lenalidomide, 3-(7-amino-3-oxo-1H-isoindol-2-yl)piperidine-2,6-dione] | neutropenia and thrombocytopenia, pruritus, rash, diarrhea | 43 % of patients | 45 % of patients | 28% | 67 % of patients |
| 4 pM | B1 |  |  |  |  |  |
